In brackets after ≈: the same amount, converted by molar mass. Read-outs that look alike come from different tables or passages of the source. Marks after values point to notes of the source that are not given here.
Key:
[1] = Aqueous solubility, tonicity salt, dissolution and taste observations on pirfenidone formulations; format: physicochemical
Method: However, at this (and lower) concentration it was determined that salt addition was required to improve acute tolerability upon inhalation of a nebulized solution (otherwise a hypotonic solution). To address tonicity, NaCl or MgCl2 were added. […] This effect was not observed at ˜pH 8.

[2] = Buffer and pH effects study: pirfenidone saturation solubility; format: physicochemical; settings: thermodynamic from solid
Method: The sample was agitated at ambient temperature overnight. The sample was visually inspected, appearance recorded, centrifuged to sediment any un-dissolved material, and the supernatant withdrawn via syringe through a 0.22 μm PVDF filter. […] The remaining filtered sample was split into three equal volumes in glass vials and placed at 25° C./60 RH, 40° C./75 RH and refrigeration. Samples were wrapped in aluminum foil to reduce light exposure. After the first night of incubation, samples were briefly visually inspected for any signs of discoloration or precipitate formation.

2E1 = target: T1, 2E1 (Homo sapiens, UniProt P05181); settings: hepatic microsomes; cited from earlier work
T1 construct: In vitro metabolism studies with hepatic microsomes; from tissue; host or cells: hepatic microsomes
T1 sequence (P05181 whole entry): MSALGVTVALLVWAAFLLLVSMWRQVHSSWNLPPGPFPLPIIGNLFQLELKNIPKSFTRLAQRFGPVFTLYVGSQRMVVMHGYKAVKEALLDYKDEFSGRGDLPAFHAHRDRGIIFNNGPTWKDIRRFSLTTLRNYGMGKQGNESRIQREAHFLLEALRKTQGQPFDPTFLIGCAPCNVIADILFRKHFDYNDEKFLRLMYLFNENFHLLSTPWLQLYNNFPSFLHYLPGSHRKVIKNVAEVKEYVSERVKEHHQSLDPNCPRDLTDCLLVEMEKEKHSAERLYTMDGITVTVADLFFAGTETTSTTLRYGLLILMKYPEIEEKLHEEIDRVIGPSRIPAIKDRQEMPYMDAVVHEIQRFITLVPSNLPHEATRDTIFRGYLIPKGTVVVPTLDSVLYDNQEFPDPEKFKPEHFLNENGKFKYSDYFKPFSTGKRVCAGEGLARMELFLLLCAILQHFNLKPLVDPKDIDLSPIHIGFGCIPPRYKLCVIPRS

[3] = system: normal human pulmonary fibroblasts; test: TGFβ1-induced fibroblast differentiation; format: cell-based; settings: for IC50: Homo sapiens, Pulmonary fibroblast, read-out: IC50, TGFβ-induced fibroblast differentiation; for αSMA (Fluorescence): TGFβ +
Method: Briefly, 20 000 cells per well were seeded in black 96 well collagen coated plates and incubate overnight (approximately 24 hours) to allow adherence. […] Cultures were then incubated for 48 hours. […] Separate controls were included for diluted cultures containing TGFβ1 or media alone. At the end of incubation, cells were fixed and stained for imaging and fluorescence plate reader quantitation. Parallel cultures were assessed for cytotoxicity using the MTS dye assay.

[4] = system: inflammasome activation in 264.7 macrophages; test: Inflammasome first signal activation (LPS, secreted IL-1β); format: cell-based; settings: Macrophage; read-out: fifty-percent inhibitory concentration (IC50), first-signal inflammasome activation
[5] = system: inflammasome activation in 264.7 macrophages; test: Inflammasome second signal activation (ATP, secreted IL-1β); format: cell-based; settings: for IL-1β: LPS +, ATP +; for IC50: Macrophage
[6] = system: bleomycin model of pulmonary fibrosis; test: Bleomycin model of pulmonary fibrosis (hydroxyproline, fibrosis score); format: in vivo, Wistar rats; settings: for Right lung Average Hydroxyproline: days 7-28; for Average Fibrosis Score, difference from bleomycin control / Right lung Average Hydroxyproline, difference from bleomycin control: sham-subtracted
Method: To compare anti-fibrotic efficacy between extended-duration intratracheal, direct-lung aerosol administration and oral gavage, the bleomycin model of pulmonary fibrosis was performed. Doses for this study were selected based upon pharmacokinetic parameters obtained in Table 22 (from Example 8). Briefly, Wistar rats (175-225 grams) were administered bleomycin by the intratracheal route using a Penn Century MicroSprayer® catheter. On the seventh day following bleomycin exposure, animals initiated treatment with either saline or pirfenidone. Animals were dosed once a day on days 7 through 28, and euthanized on day 29. Pirfenidone was administered either intratracheally using Penn Century MicroSprayer catheter or by oral gavage. Sham and bleomycin control groups received either no treatment or intratracheal saline by Penn Century MicroSprayer catheter. While dosing more frequently (or less frequently) may improve the observed effects, anesthesia required for intratracheal administration reduced animal weight gain (reduced food intake) and, thus limited dosing to once a day for this study. Because anesthesia reduced weight gain, all study animals (intratracheal, oral and control) received once-a-day isoflurane using the same technique and duration. Twelve animals were enrolled into each dosing group. […] Oral gavage was administered in a single 300 mcL volume. Due to technical restrictions, instead of the mg/kg dose being equally split between six 50 mcL administrations over 2 minutes, intratracheal administration was performed with three equal 50 mcL volumes administered every 40 seconds over the same period. For dose selection, data from Table 22 was extrapolated. On day 29, animals were euthanized. Right lungs were extracted and measured for hydroxyproline content, while left lungs were subjected to histology. Histological sections were stained with picrosirius red and scored for lung tissue fibrosis. Twenty random photographs of each stained lung tissue section were taken, blinded and scored by an independent review panel. Observations were pooled for analysis.

CYP1A2 = target: T2, CYP1A2 (Homo sapiens, UniProt P05177); settings: hepatic microsomes; cited from earlier work
T2 construct: In vitro metabolism studies with hepatic microsomes; from tissue; host or cells: hepatic microsomes
T2 sequence (P05177 whole entry): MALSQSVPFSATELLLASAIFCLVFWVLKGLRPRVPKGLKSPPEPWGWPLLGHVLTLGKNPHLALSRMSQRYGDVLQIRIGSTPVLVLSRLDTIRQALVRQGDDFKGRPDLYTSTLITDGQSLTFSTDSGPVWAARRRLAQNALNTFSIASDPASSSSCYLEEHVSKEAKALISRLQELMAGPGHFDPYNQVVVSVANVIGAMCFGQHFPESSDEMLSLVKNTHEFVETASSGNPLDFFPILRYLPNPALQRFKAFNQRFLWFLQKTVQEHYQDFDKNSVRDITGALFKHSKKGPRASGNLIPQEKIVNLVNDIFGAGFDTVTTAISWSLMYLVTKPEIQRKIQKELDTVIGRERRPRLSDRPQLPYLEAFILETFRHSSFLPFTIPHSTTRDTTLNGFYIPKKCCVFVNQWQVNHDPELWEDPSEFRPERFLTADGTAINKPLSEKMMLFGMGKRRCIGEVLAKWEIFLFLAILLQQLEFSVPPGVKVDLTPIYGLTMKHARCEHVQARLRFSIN

CYP2C9 = target: T3, CYP2C9 (Homo sapiens, UniProt P11712); settings: hepatic microsomes; cited from earlier work
T3 construct: In vitro metabolism studies with hepatic microsomes; from tissue; host or cells: hepatic microsomes
T3 sequence (P11712 whole entry): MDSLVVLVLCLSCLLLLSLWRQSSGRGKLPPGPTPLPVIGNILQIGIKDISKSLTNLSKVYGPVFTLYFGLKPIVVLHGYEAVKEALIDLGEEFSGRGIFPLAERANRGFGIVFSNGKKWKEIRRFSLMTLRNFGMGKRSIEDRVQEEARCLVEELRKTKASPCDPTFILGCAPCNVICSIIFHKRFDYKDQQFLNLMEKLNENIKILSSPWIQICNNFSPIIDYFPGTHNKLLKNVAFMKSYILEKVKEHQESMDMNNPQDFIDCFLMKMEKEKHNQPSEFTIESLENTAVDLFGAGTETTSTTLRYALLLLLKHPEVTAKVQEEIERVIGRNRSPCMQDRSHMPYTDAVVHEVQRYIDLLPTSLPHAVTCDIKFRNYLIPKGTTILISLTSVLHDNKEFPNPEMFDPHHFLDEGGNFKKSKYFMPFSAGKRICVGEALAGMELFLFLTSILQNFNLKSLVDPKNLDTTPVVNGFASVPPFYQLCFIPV

[7] = Bleomycin + IT pirfenidone 0.9 mg/kg
[8] = Bleomycin + IT pirfenidone 3.0 mg/kg
[9] = Bleomycin + IT pirfenidone 6.4 mg/kg
[10] = Bleomycin + PO pirfenidone 30 mg/kg
[11] = Bleomycin + PO pirfenidone 100 mg/kg

SMILES: Cc1ccc(=O)n(-c2ccccc2)c1 [pirfenidone, 5-methyl-1-phenyl-2-(1H)-pyridone]
- formulation stability on storage ([1]; MgCl2 added, 1:1 and 1:2 mole ratios of magnesium to pirfenidone): maintained a stable, soluble solution
- solubility ([1]; aqueous solution, aqueous buffer, across a pH range of about 4.0 to about 8.0): ~17 mg/mL
- formulation stability on storage ([1]; ~17 mg/mL pirfenidone, NaCl added for tonicity, ambient storage): precipitation upon ambient storage
- solubility ([2]; citrate buffer, pH 4, aqueous buffer, Citrate buffer 5 mM, pH 4, ambient temperature overnight): 18.4 mg/mL (≈ 99.3 mM)
- solubility ([2]; citrate buffer, pH 4, aqueous buffer, Citrate buffer 50 mM, pH 4, ambient temperature overnight): 18.1 mg/mL (≈ 97.7 mM)
- solubility ([2]; citrate buffer, pH 6, aqueous buffer, Citrate buffer 5 mM, pH 6, ambient temperature overnight): 18.4 mg/mL (≈ 99.3 mM)
- solubility ([2]; citrate buffer, pH 6, aqueous buffer, Citrate buffer 50 mM, pH 6, ambient temperature overnight): 16.4 mg/mL (≈ 88.5 mM)
- solubility ([2]; phosphate buffer, pH 6, aqueous buffer, Phosphate buffer 5 mM, pH 6, ambient temperature overnight): 18.3 mg/mL (≈ 98.8 mM)
- solubility ([2]; phosphate buffer, pH 6, aqueous buffer, Phosphate buffer 50 mM, pH 6, ambient temperature overnight): 17.2 mg/mL (≈ 92.9 mM)
- solubility ([2]; phosphate buffer, pH 7.5, aqueous buffer, Phosphate buffer 5 mM, pH 7.5, ambient temperature overnight): 19 mg/mL (≈ 103 mM)
- solubility ([2]; phosphate buffer, pH 7.5, aqueous buffer, Phosphate buffer 50 mM, pH 7.5, ambient temperature overnight): 16.3 mg/mL (≈ 88 mM)
- solubility ([2]; water, pH 7.9, water, buffer 0 mM, pH 7.9, ambient temperature overnight): 18.4 mg/mL (≈ 99.3 mM)
- contribution to pirfenidone metabolism (2E1): less than 13%
- IC50 ([3]; 48 h): ~25 µg/mL (≈ 0.135 mM)
- IC50 [3]: ~125 µg/mL (≈ 0.675 mM)
- αSMA (Fluorescence) ([3]; Table 36, Long-term exposure (48 hours), pirfenidone 5 mcg/mL): 4.72
- αSMA (Fluorescence) ([3]; Table 36, Long-term exposure (48 hours), pirfenidone 25 mcg/mL): 4.04
- αSMA (Fluorescence) ([3]; Table 36, Long-term exposure (48 hours), pirfenidone 125 mcg/mL): 3.15
- αSMA (Fluorescence) ([3]; Table 36, Long-term exposure (48 hours), pirfenidone 625 mcg/mL): 2.47
- αSMA (Fluorescence) ([3]; Table 36, Short-term exposure, pirfenidone 5 mcg/mL): 6.76
- αSMA (Fluorescence) ([3]; Table 36, Short-term exposure, pirfenidone 25 mcg/mL): 5.34
- αSMA (Fluorescence) ([3]; Table 36, Short-term exposure, pirfenidone 625 mcg/mL): 3.57
- αSMA (Fluorescence) ([3]; Table 37 (broader dose-response), Short-term exposure, pirfenidone 1 mcg/mL): 7.65
- αSMA (Fluorescence) ([3]; Table 37 (broader dose-response), Short-term exposure, pirfenidone 10 mcg/mL): 7.75
- αSMA (Fluorescence) ([3]; Table 37 (broader dose-response), Short-term exposure, pirfenidone 100 mcg/mL): 5.61
- αSMA (Fluorescence) ([3]; Table 37 (broader dose-response), Short-term exposure, pirfenidone 1000 mcg/mL): 2.27
- IC50 [4]: ~25 µg/mL (≈ 0.135 mM)
- IL-1β ([5]; Longer-term exposure, 40 min > ATP, pirfenidone 5 mcg/mL): 1.4 pg/mL
- IL-1β ([5]; Longer-term exposure, 40 min > ATP, pirfenidone 25 mcg/mL): 1.1 pg/mL
- IL-1β ([5]; Longer-term exposure, 40 min > ATP, pirfenidone 125 mcg/mL): 0.9 pg/mL
- IL-1β ([5]; Longer-term exposure, 40 min > ATP, pirfenidone 625 mcg/mL): 0.4 pg/mL
- IC50 ([5]; 40 min, second (40 minute) sampling point alone, short-term exposure): ~25 µg/mL (≈ 0.135 mM)
- IC50 ([5]; sum of short-term sampling points and longer-term sampling point): ~625 µg/mL (≈ 3.37 mM)
- IL-1β ([5]; Short-term exposure, 10 + 40 min > ATP (sum of sampling points), pirfenidone 5 mcg/mL): 1.1 pg/mL
- IL-1β ([5]; Short-term exposure, 10 + 40 min > ATP (sum of sampling points), pirfenidone 25 mcg/mL): 1.0 pg/mL
- IL-1β ([5]; Short-term exposure, 10 + 40 min > ATP (sum of sampling points), pirfenidone 125 mcg/mL): 1.0 pg/mL
- IL-1β ([5]; Short-term exposure, 10 + 40 min > ATP (sum of sampling points), pirfenidone 625 mcg/mL): 0.6 pg/mL
- IL-1β ([5]; Short-term exposure, 10 min > ATP, pirfenidone 5 mcg/mL): 81.5 pg/mL
- IL-1β ([5]; Short-term exposure, 10 min > ATP, pirfenidone 25 mcg/mL): 100.0 pg/mL
- IL-1β ([5]; Short-term exposure, 10 min > ATP, pirfenidone 125 mcg/mL): 118.7 pg/mL
- IL-1β ([5]; Short-term exposure, 10 min > ATP, pirfenidone 625 mcg/mL): 66.3 pg/mL
- IL-1β ([5]; Short-term exposure, 40 min > ATP, pirfenidone 5 mcg/mL): 95.8 pg/mL
- IL-1β ([5]; Short-term exposure, 40 min > ATP, pirfenidone 25 mcg/mL): 50.4 pg/mL
- IL-1β ([5]; Short-term exposure, 40 min > ATP, pirfenidone 125 mcg/mL): 36.3 pg/mL
- IL-1β ([5]; Short-term exposure, 40 min > ATP, pirfenidone 625 mcg/mL): 27.3 pg/mL
- possible lung tissue Cmax ([6]; 0.9 mg/kg dose to 250 gram rat, lung about 1.5 grams, whole dose): ≤ 150 mcg/gram
- possible lung tissue Cmax ([6]; 0.9 mg/kg intratracheal dose divided into thirds): about 50 mcg/gram lung tissue
- anti-fibrotic efficacy ([6]; 3.0 mg/kg intratracheal, direct lung aerosol, once a day days 7-28): no observed pirfenidone efficacy
- Average Fibrosis Score, Picrosirius Red-stained left lung sections [6, 7]: 2.88*
- Lung Tissue AUC0-2 hrs [6, 7]: 2.6 µg·h/g
- Lung Tissue Cmax [6, 7]: 11.6 µg/g
- Right lung Average Hydroxyproline ([6]; Bleomycin + IT pirfenidone 0.9 mg/kg once a day): 2.88* mg/right lung
- Average Fibrosis Score, difference from bleomycin control [6, 7]: −0.53*, ****
- Right lung Average Hydroxyproline, difference from bleomycin control [6, 7]: −0.70*, **** mg/right lung
- Average Fibrosis Score, Picrosirius Red-stained left lung sections [6, 8]: 3.66
- Lung Tissue AUC0-2 hrs [6, 8]: 7.3 µg·h/g
- Lung Tissue Cmax [6, 8]: 33.5 µg/g
- Right lung Average Hydroxyproline ([6]; Bleomycin + IT pirfenidone 3.0 mg/kg once a day): 3.56 mg/right lung
- Average Fibrosis Score, difference from bleomycin control [6, 8]: 0.26***, ****
- Right lung Average Hydroxyproline, difference from bleomycin control [6, 8]: −0.02**, **** mg/right lung
- Average Fibrosis Score, Picrosirius Red-stained left lung sections [6, 9]: 3.47
- Lung Tissue AUC0-2 hrs [6, 9]: 15.5 µg·h/g
- Lung Tissue Cmax [6, 9]: 71.5 µg/g
- Right lung Average Hydroxyproline ([6]; Bleomycin + IT pirfenidone 6.4 mg/kg once a day): 3.50 mg/right lung
- Average Fibrosis Score, difference from bleomycin control [6, 9]: 0.07**, ****
- Right lung Average Hydroxyproline, difference from bleomycin control [6, 9]: −0.08***, **** mg/right lung
- Average Fibrosis Score, Picrosirius Red-stained left lung sections [6, 10]: 3.11
- Lung Tissue AUC0-2 hrs [6, 10]: 18.2 µg·h/g
- Lung Tissue Cmax [6, 10]: 11.8 µg/g
- Right lung Average Hydroxyproline ([6]; Bleomycin + PO pirfenidone 30 mg/kg once a day): 3.65 mg/right lung
- Average Fibrosis Score, difference from bleomycin control [6, 10]: 0.68*, **
- Right lung Average Hydroxyproline, difference from bleomycin control [6, 10]: 0.43*, ** mg/right lung
- Average Fibrosis Score, Picrosirius Red-stained left lung sections [6, 11]: 3.61
- Lung Tissue AUC0-2 hrs [6, 11]: 34.4 µg·h/g
- Lung Tissue Cmax [6, 11]: 33.6 µg/g
- Right lung Average Hydroxyproline ([6]; Bleomycin + PO pirfenidone 100 mg/kg once a day): 3.73 mg/right lung
- Average Fibrosis Score, difference from bleomycin control [6, 11]: 1.18***
- Right lung Average Hydroxyproline, difference from bleomycin control [6, 11]: 0.51*** mg/right lung
- anti-fibrotic efficacy (fibrosis, hydroxyproline), direct lung versus oral ([6]; intratracheal aerosol versus oral gavage): more efficacious
- pirfenidone metabolised via CYP1A2 (CYP1A2): approximately 48%
- contribution to pirfenidone metabolism (CYP2C9): less than 13%

— patent publication US10028966B2 (Avalyn Pharma Inc., priority 2014, dated 2018)
